Test results as given in patent US10208068B2, “Macrocycles as factor XIa inhibitors” (BRISTOL-MYERS SQUIBB COMPANY, priority 2011, dated 2019).
Where a name gives a salt, the structure may show the parent alone.

Target: human Factor XIa (Homo sapiens (Human), UniProt P03951)
Test: Factor XIa enzyme inhibition assay (chromogenic substrate S-2366)
Format: biochemical
Conditions: purified human Factor XIa 25-200 pM, substrate S-2366, 50 mM HEPES pH 7.4

human Factor XIa, sequence (P03951 388-625): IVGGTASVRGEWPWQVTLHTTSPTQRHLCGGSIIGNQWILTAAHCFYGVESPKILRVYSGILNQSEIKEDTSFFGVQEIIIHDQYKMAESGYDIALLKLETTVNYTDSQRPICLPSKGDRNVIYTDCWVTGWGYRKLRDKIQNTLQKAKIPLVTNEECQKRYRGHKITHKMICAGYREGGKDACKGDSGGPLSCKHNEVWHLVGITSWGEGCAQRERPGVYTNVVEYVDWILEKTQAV
human Factor XIa, sequence (P03951 19-387 partner): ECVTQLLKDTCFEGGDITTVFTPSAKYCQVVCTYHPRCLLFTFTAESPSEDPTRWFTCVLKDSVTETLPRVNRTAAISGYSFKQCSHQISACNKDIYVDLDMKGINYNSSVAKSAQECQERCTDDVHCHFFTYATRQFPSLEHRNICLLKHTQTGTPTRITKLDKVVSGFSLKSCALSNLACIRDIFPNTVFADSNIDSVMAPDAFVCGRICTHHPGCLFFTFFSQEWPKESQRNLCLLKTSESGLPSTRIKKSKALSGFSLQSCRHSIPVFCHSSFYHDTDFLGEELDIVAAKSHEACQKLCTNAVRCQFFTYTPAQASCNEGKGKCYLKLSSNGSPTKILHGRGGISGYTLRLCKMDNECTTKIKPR

Ki	SMILES
< 5 nM	CCC1CCC[C@H](NC(=O)c2cn(-c3cccc(Cl)c3F)nn2)c2cc(ccn2)-c2ccc(NC(=O)OC)cc2NC1=O (single isomer, unassigned) [Example 24, TFA salt]
54.9 nM	COC(=O)Nc1ccc2c(c1)NC(=O)[C@H](C)C(O)CC[C@H](NC(=O)c1cnn(-c3cccc(Cl)c3F)c1C)c1cc-2ccn1 (single isomer, unassigned) [Example 177, TFA salt]
312 nM	COC(=O)Nc1ccc2c(c1)C(=O)NC(C)CCC[C@H](NC(=O)c1cnn(-c3cccc(Cl)c3F)c1C)c1cc-2ccn1 (single isomer, unassigned) [Example 221]
< 5 nM	COC(=O)Nc1ccc2c(c1)NC(=O)[C@H](C)CCC[C@H](NC(=O)c1cn(-c3cccc(Cl)c3F)nn1)c1cc-2ccn1 [Example 3]
69.4 nM	COC(=O)Nc1ccc2c(c1)NC(=O)[C@H](C)CCC[C@H](NC(=O)c1cnn(C3CCCNC3)c1)c1cc-2ccn1 (stereo partly drawn) [Example 11]
< 5 nM	COC(=O)Nc1ccc2c(c1)NC(=O)[C@H](C)CCC[C@H](NC(=O)c1nnn(-c3cccc(Cl)c3F)c1Cl)c1cc-2ccn1 [Example 15]
98.7 nM	COC(=O)Nc1ccc2c(c1)NC(=O)[C@H](C)CCC[C@H](NC(=O)c1cn(-c3cccc(C)c3)cn1)c1cc-2ccn1 [Example 18]
9.08 nM	COC(=O)Nc1ccc2c(c1)NC(=O)CCCC[C@H](NC(=O)c1cnn(-c3cccc(Cl)c3F)c1)c1cc-2ccn1 [Example 21, Methyl N-[(14S)-14-[1-(3-chloro-2-fluorophenyl)-1H-pyrazole-4-amido]-9-oxo-8,16-diazatricyclo[13.3.1.0^2,7]nonadeca-1(19),2(7),3,5,15,17-hexaen-5-yl]carbamate, TFA salt]
178 nM	CCOC(=O)C1CCCC[C@H](NC(=O)c2cnn(-c3cccc(Cl)c3F)c2)c2cc(ccn2)-c2ccc(NC(=O)OC)cc2N1 (stereo partly drawn) [Example 26, Ethyl (9R,14S)-14-[1-(3-chloro-2-fluorophenyl)-1H-pyrazole-4-amido]-5-[(methoxycarbonyl)amino]-8,16-diazatricyclo[13.3.1.0^2,7]nonadeca-1(19),2(7),3,5,15,17-hexaene-9-carboxylate, 2 TFA salt]
11.4 nM	COC(=O)Nc1ccc2c(c1)NC(=O)CCCC[C@H](NC(=O)c1cnn(-c3cccc(Cl)c3F)c1)c1cc-2cnc1F [Example 32, Methyl N-[(14S)-14-[1-(3-chloro-2-fluorophenyl)-1H-pyrazole-4-amido]-16-fluoro-9-oxo-8,17-diazatricyclo[13.3.1.0^2,7]nonadeca-1(19),2(7),3,5,15,17-hexaen-5-yl]carbamate, TFA salt]
10.8 nM	COC(=O)Nc1ccc2c(c1)NC(=O)[C@H](C)CCC[C@H](NC(=O)c1nnn(-c3cccc(Cl)c3F)c1C)c1nc-2c[nH]1 [Example 39]
12.8 nM	COC(=O)Nc1ccc2c(c1)NC(=O)[C@H](C)CCC[C@H](NC(=O)c1cnn(-c3cccc(Cl)c3)c1C)c1nc-2c[nH]1 [Example 41]
217 nM	COC(=O)Nc1ccc2c(c1)NC(=O)CCCC[C@H](NC(=O)c1cn(-c3cccc(Cl)c3)nn1)c1nc-2c[nH]1 [Example 52, Methyl N-[(14S)-14-[1-(3-chlorophenyl)-1H-1,2,3-triazole-4-amido]-9-oxo-8,16,18-triazatricyclo[13.2.1.0^2,7]octadeca-1(17),2,4,6,15(18)-pentaen-5-yl]carbamate]
935 nM	COC(=O)Nc1ccc2c(c1)NC(=O)CC/C=C/C[C@H](NC(=O)c1c[nH]c(-c3c(F)ccc(Cl)c3F)n1)c1nc-2c[nH]1 [Example 58, Methyl ((12E,15S)-15-(((2-(3-chloro-2,6-difluorophenyl)-1H-imidazol-4-yl)carbonyl)amino)-9-oxo-8,17,19-triazatricyclo[14.2.1.0^2,7]nonadeca-1(18),2,4,6,12,16(19)-hexaen-5-yl)carbamate]
10.4 nM	COC(=O)Nc1ccc2c(c1)NC(=O)[C@H](C)CCC[C@H](NC(=O)c1cn(-c3c(F)ccc(Cl)c3F)cn1)c1cc-2ccn1 [Example 72]
